From paper PMC3292552, “Post-Translational Regulation and Trafficking of the Granulin-Containing Protease RD21 of Arabidopsis thaliana” (PLoS ONE, 2012)

Assays:
RD21 [1] = biological target: T1, RD21 (Arabidopsis thaliana, UniProt P43297); assay: competition of DCG-04 labelling; protection of rubisco from degradation; assay type: biochemical; settings: covalent; 20 µM E-64 preincubation, 0.2 µM DCG-04, pH 6, 1 mM DTT; leaf extract
T1 construct: gene RD21A; full-length preproprotein agroinfiltrated in Nicotiana benthamiana, two (pRH628) or three (pRH629) extra C-terminal Ser; crude leaf extract; processed in planta to iRD21/mRD21; mRD21 N-termini DELPE, LPE, GDELPE; also endogenous in Arabidopsis leaf extract

RD21 [2] = biological target: T2, RD21 (Arabidopsis thaliana, UniProt P43297, C161A); assay: competition of DCG-04 labelling; assay type: biochemical; settings: 20 µM E-64 preincubation, 0.2 µM DCG-04, pH 6; catalytic Cys absent; leaf extract
T2 construct: gene RD21A; full-length preproprotein agroinfiltrated in Nicotiana benthamiana, two (pRH628) or three (pRH629) extra C-terminal Ser; crude leaf extract; processed in planta to iRD21/mRD21; mRD21 N-termini DELPE, LPE, GDELPE; also endogenous in Arabidopsis leaf extract
T2 sequence (P43297 137-462 C161A): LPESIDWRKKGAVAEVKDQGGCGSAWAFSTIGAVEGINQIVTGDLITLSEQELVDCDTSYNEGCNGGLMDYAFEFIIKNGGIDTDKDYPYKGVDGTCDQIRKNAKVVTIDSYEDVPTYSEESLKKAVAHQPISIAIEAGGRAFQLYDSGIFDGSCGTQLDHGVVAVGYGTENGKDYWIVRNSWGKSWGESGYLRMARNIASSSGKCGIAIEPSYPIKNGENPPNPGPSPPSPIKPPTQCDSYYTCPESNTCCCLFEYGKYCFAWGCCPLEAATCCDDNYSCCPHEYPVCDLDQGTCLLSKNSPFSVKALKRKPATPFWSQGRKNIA

T1 sequence (P43297 137-462): as the sequence (P43297 137-462 C161A) above, with A25C counted along it

CC(C)C[C@H](NC(=O)[C@H]1O[C@@H]1C(=O)O)C(=O)NCCCCNC(=N)N [E-64]
competition of DCG-04 labelling; protection of rubisco from degradation (RD21 [1]): the reaction with DCG-04 can be prevented by preincubation with E-64 | competition of DCG-04 labelling (RD21 [2]): a weak, E-64-competable biotinylation occurs of iRD21
